Literature values, collected in PMC6332596 (Journal of Hematology & Oncology, 2019).

Parameters: method as in PMID 25933833, PMID 21131552
Settings: compared with chiauranib; cited from earlier work

SMILES | DLTs in phase I trials
Nc1ncc(-c2cnn(CCO)c2)c2scc(-c3ccc(NC(=O)Nc4cccc(F)c4)cc3)c12 [Ilorasertib] | more DLTs, such as pancreatic disease and hypertension, fatigue, cholecystitis, and QTc prolonged
Cc1cc(Nc2cc(N3CCN(C)CC3)nc(/C=C/c3ccccc3)n2)n[nH]1 [ENMD-2076] | more DLTs, such as pancreatic disease and hypertension, fatigue, cholecystitis, and QTc prolonged
